From publication PMC10525924, “Engineering and Purification of Microcin C7 Variants Resistant to Trypsin and Analysis of Their Biological Activity” (Antibiotics, 2023)
Converted amounts (≈) assume the structure as drawn. Where a SMILES comes first, the peptide text is derived from it.

Legend:
E. coli K88 = assay: microbe, parasite or virus in culture; format: cell-based; settings: agar diffusion; for bacteriostatic effect on indicator strain K88: fermentation supernatant, not trypsin-treated; for antimicrobial activity after trypsin treatment, K88 / Diameters of the inhibition zones, Trypsin-Treated Group, K88: supernatant treated with trypsin 50 μg/mL, 37 °C, 3 h; for Diameters of the inhibition zones, Trypsin-Untreated Group, K88: 200 μL fermentation supernatant, 1 × 10^5 CFU/mL, 4 °C 1 h then 37 °C 24 h, chloramphenicol 100 μL of 0.25 μg/mL; for Diameters of the inhibition zones, Trypsin-Untreated Group, K88 / Diameters of the inhibition zones, Trypsin-Treated Group, K88: dash = no zone; for Diameters of the inhibition zones, Trypsin-Treated Group, K88: pH 6.8, 37 °C 24 h
Procedure: (§1) The pH was adjusted to 6.8.
(§2) The fermentation supernatants and pure products were used to characterize the bacteriostatic effects of McC variants by the agar diffusion and microdilution methods. Yej^+rimL^− and E. coli K88 indicator bacteria were applied. The serotype of E. coli K88 was O149:K91, K88ac, a clinically isolated strain, and provided by the College of Veterinary Medicine, China Agricultural University. The indicated bacteria were diluted to 1 × 10^5 CFU/mL and added to plate medium cooled to 50 °C. Two hundred microliters of supernatants were added to each dish, and diffusion was performed at 4 °C for 1 h. After incubation at 37 °C for 24 h, the diameters of the inhibition zones were determined. One hundred microliters of 0.25 μg/mL chloramphenicol was used as a control. The MICs of the pure McC variants were determined by microdilution in a sterilized 96-well microplate. The McC variants were serially diluted 2 times in 96-well microplates with LB medium. The concentrations of the McC variants ranged from 0.125 to 100 µg/mL. Each well was inoculated with 10 μL of overnight bacterial culture at a concentration of 1.0 × 10^5 CFU/mL and incubated at 37 °C for 24 h. A microplate reader was used to automatically observe changes in absorbance at 600 nm in order to monitor bacterial growth. A positive control group (including inoculated medium) and a negative control group (with medium only) were included. The MIC was determined as the lowest concentration of McC variant that inhibited bacterial growth (preventing an increase in the absorbance reading). All tests were performed in triplicate.

chymotrypsin = assay: Remaining amount by RP-HPLC after chymotrypsin treatment; format: in vitro ADME; settings: chymotrypsin (isolated protease); chymotrypsin treated for 3 h; read-out RP-HPLC; Table S2
Procedure: (§3) To test whether the variants were tolerant to trypsin or other digestive enzymes, the amount of the remaining McC and its analogues remaining was determined by RP-HPLC after trypsin, pepsin, and chymotrypsin treated for 3 h (Table S2), and the inhibition zones of trypsin-treated variants were tested using the same method (Table 2).

pepsin = assay: Remaining amount by RP-HPLC after pepsin treatment; format: in vitro ADME; settings: pepsin (isolated protease); pepsin treated for 3 h; read-out RP-HPLC; Table S2
Procedure: as §3

Yej^+rimL^− strain [1] = assay: organism not typed; format: cell-based; settings: agar diffusion; for bacteriostatic activity after trypsin treatment, Yej^+rimL^− / Diameters of the inhibition zones, Trypsin-Treated Group, Yej^+rimL^−: supernatant treated with trypsin 50 μg/mL, 37 °C, 3 h; for Diameters of the inhibition zones, Trypsin-Untreated Group, Yej^+rimL^−: 200 μL fermentation supernatant, 1 × 10^5 CFU/mL, 4 °C 1 h then 37 °C 24 h, chloramphenicol 100 μL of 0.25 μg/mL; for Diameters of the inhibition zones, Trypsin-Untreated Group, Yej^+rimL^− / Diameters of the inhibition zones, Trypsin-Treated Group, Yej^+rimL^−: dash = no zone; for Diameters of the inhibition zones, Trypsin-Treated Group, Yej^+rimL^−: pH 6.8, 37 °C 24 h
Description: To analyze the antimicrobial ability of the variants, we measured the inhibition zones of all 21 variants by the agar diffusion method. The peptide moiety of McC was recognized by a YejABEf-peptide transporter. The rimL contains an acetyltransferase domain homologous to MccE which can detoxify and provide resistance to McC [17]. The overexpression of the YejABEF gene cluster and rimL gene knockout made the strain hypersensitive to McC. Therefore, the Yej^+rimL^− strain was selected as the sensitive indicator bacterial strain.
as §1, §2

[2] = Remaining amount by RP-HPLC after chymotrypsin treatment; format: in vitro ADME; settings: isolated enzyme chymotrypsin; chymotrypsin treated for 3 h; read-out RP-HPLC; Table S2
Procedure: as §3

Yej^+rimL^− strain [3] = format: cell-based; settings: HPLC-purified variants; microdilution in LB, 96-well; 0.125 to 100 µg/mL; 1.0 × 10^5 CFU/mL; 37 °C 24 h; absorbance 600 nm; triplicate
Procedure: To accurately characterize the bacteriostatic abilities of the variants, the MICs of the pure McC variants toward the McCsensitive strain Yej^+rimL^− were determined. The MICs of all variants were lower than that of wild-type McC. From smallest to largest MIC, the above five variants were in the following order: R2A, R2T, R2Q, R2S, and R2H. […] Although the diameter of the inhibitory zone of R2M was smaller than those of the above five variants, the bacteriostatic ability of R2M was second only to R2T/R2Q, and the MIC was 50 μg/mL.
as §2

indicator bacteria = settings: second to seventh codons of mccA replaced; cited from earlier work
Description: The heptapeptide precursor of McC, f-MRTGNAN, is encoded by the first gene in the mcc gene clusters, mccA [11]. Considering its protein nature, it is suitable for gene-based peptide engineering. Kazakov et al. first applied site-directed mutagenesis on the mccA gene, systematically replacing the second to seventh codons of mccA encoding 19 standard amino acids for a total of 114 mutations.

[4] = HPLC retention time according to hydrophobicity; format: physicochemical; settings: chromatographic, C18 5 μm 9.4 × 250 mm; A 0.1% trichloroacetic acid, B 0.1% trichloroacetic acid with 90% acetonitrile; linear 5% B to 50% B; 1 mL/min; 35 °C; 280 nm; varies according to hydrophobicity
Procedure: To find the separation peaks of the variants, wildtype McC and blank control fermentation broth samples were tested by HPLC. The separation peaks with obvious differences (those with retention times of 11 min and 17 min) were purified and the antimicrobial activity was determined. […] Therefore, the molecular weight was further analyzed by mass spectrometry, and the separation peak at approximately 17 min was confirmed to be that of the desired purified McC. Since the mutations in this study involved only one amino acid and had few effects on the properties of the peptides, we predicted that the separation peaks of the variants should fluctuate around approximately 17 min according to their hydrophobicity. […] The purity of the purified variants was determined by HPLC to be greater than 80% (Table 3).
The lyophilized supernatants were dissolved in deionized water, filtered through 0.22 μm aqueous-phase filter membranes, and purified by high-performance liquid chromatography (HPLC, Agilent Technologies Inc., Palo Alto, CA, USA) with C18 column (5 μm 9.4 × 250 mm, Agilent Technologies Inc., Palo Alto, CA, USA). The mobile phase was composed of 0.1% (v/v) trichloroacetic acid (solvent A) and 0.1% (v/v) trichloroacetic acid with 90% (v/v) acetonitrile (solvent B). A linear gradient from 95% A/5% B to 50% A/50% B was used with a flow rate of 1 mL/min, a sample volume of 10 μL, a column temperature of 35 °C, and a detection wavelength of 280 nm. Electrospray ionization mass spectrometry (ESI-MS) was used to compare the McC variant masses with the expected masses. The relationships between the relative abundances and the mass-to-charge ratios (m/z) of the ions were determined to confirm the identities of the experimentally produced McC variants.

[5] = Remaining amount by RP-HPLC after pepsin treatment; format: in vitro ADME; settings: isolated enzyme pepsin; pepsin treated for 3 h; read-out RP-HPLC; Table S2
Procedure: as §3

SMILES	bacteriostatic effect on indicator strain K88 (E. coli K88)	remaining at 3 h (chymotrypsin)	remaining at 3 h (pepsin)	antimicrobial activity after trypsin treatment, K88 (E. coli K88)	Diameters of the inhibition zones, Trypsin-Untreated Group, K88 (E. coli K88)	Diameters of the inhibition zones, Trypsin-Treated Group, K88 (E. coli K88)	bacteriostatic activity after trypsin treatment, Yej^+rimL^− (Yej^+rimL^− strain [1])	Diameters of the inhibition zones, Trypsin-Untreated Group, Yej^+rimL^− (Yej^+rimL^− strain [1])	Diameters of the inhibition zones, Trypsin-Treated Group, Yej^+rimL^− (Yej^+rimL^− strain [1])	remaining at 3 h [2]	MIC (Yej^+rimL^− strain [3])	antimicrobial activity of mccA substitution variants (indicator bacteria)	Retention Time [4]	remaining at 3 h [5]
CSCC[C@H](NC=O)C(=O)N[C@@H](CS)C(=O)N[C@H](C(=O)NCC(=O)N[C@@H](CC(N)=O)C(=O)N[C@@H](C)C(=O)N[C@@H](CC(=O)O)C(=O)NP(=O)(OCCCN)OC[C@H]1O[C@@H](n2cnc3c(N)ncnc32)[C@H](O)[C@@H]1O)[C@@H](C)O (stereo partly shown) [R2C] (HELM PEPTIDE1{[O=C[*:2]].M.C.T.G.N.A.[NCCCOP(=O)(NC(=O)[C@H](CC(=O)O)N[*:1])OC[C@H]1O[C@@H](n2cnc3c(N)ncnc32)[C@H](O)[C@@H]1O]}$$$$V2.0)	no bacteriostatic effects	40.9 ± 1.22%	82.5 ± 0.98%	–	–	–	–	–	–	–	–	–	–	–
CSCC[C@H](NC=O)C(=O)N[C@@H](CCC(=O)O)C(=O)N[C@H](C(=O)NCC(=O)N[C@@H](CC(N)=O)C(=O)N[C@@H](C)C(=O)N[C@@H](CC(=O)O)C(=O)NP(=O)(OCCCN)OC[C@H]1O[C@@H](n2cnc3c(N)ncnc32)[C@H](O)[C@@H]1O)[C@@H](C)O (stereo partly shown) [R2E] (HELM PEPTIDE1{[O=C[*:2]].M.E.T.G.N.A.[NCCCOP(=O)(NC(=O)[C@H](CC(=O)O)N[*:1])OC[C@H]1O[C@@H](n2cnc3c(N)ncnc32)[C@H](O)[C@@H]1O]}$$$$V2.0)	no bacteriostatic effects	38.4 ± 0.97%	90.72 ± 0.74%	–	–	–	–	–	–	–	–	–	–	–
CSCC[C@H](NC=O)C(=O)N[C@@H](Cc1c[nH]cn1)C(=O)N[C@H](C(=O)NCC(=O)N[C@@H](CC(N)=O)C(=O)N[C@@H](C)C(=O)N[C@@H](CC(=O)O)C(=O)NP(=O)(OCCCN)OC[C@H]1O[C@@H](n2cnc3c(N)ncnc32)[C@H](O)[C@@H]1O)[C@@H](C)O (stereo partly shown) [R2H] (HELM PEPTIDE1{[O=C[*:2]].M.H.T.G.N.A.[NCCCOP(=O)(NC(=O)[C@H](CC(=O)O)N[*:1])OC[C@H]1O[C@@H](n2cnc3c(N)ncnc32)[C@H](O)[C@@H]1O]}$$$$V2.0)	–	–	–	retained their antimicrobial activity	15.55 mm	11.99 mm	exhibited antibacterial effects	18.39 mm	15.92 mm	42.7 ± 0.69%	>100 µg/mL	bacteriostatic	16.872 min	82.29 ± 0.52%
CSCC[C@H](NC=O)C(=O)N[C@@H](CCSC)C(=O)N[C@H](C(=O)NCC(=O)N[C@@H](CC(N)=O)C(=O)N[C@@H](C)C(=O)N[C@@H](CC(=O)O)C(=O)NP(=O)(OCCCN)OC[C@H]1O[C@@H](n2cnc3c(N)ncnc32)[C@H](O)[C@@H]1O)[C@@H](C)O (stereo partly shown) [R2M] (HELM PEPTIDE1{[O=C[*:2]].M.M.T.G.N.A.[NCCCOP(=O)(NC(=O)[C@H](CC(=O)O)N[*:1])OC[C@H]1O[C@@H](n2cnc3c(N)ncnc32)[C@H](O)[C@@H]1O]}$$$$V2.0)	–	–	–	–	12.37 mm	–	exhibited antibacterial effects	21.57 mm	14.31 mm	43.8 ± 0.68%	50 µg/mL (≈ 43.4 µM)	loss of antimicrobial activity	19.622 min	88.7 ± 0.93%
CSCC[C@H](NC=O)C(=O)N[C@@H](CC(N)=O)C(=O)N[C@H](C(=O)NCC(=O)N[C@@H](CC(N)=O)C(=O)N[C@@H](C)C(=O)N[C@@H](CC(=O)O)C(=O)NP(=O)(OCCCN)OC[C@H]1O[C@@H](n2cnc3c(N)ncnc32)[C@H](O)[C@@H]1O)[C@@H](C)O (stereo partly shown) [R2N] (HELM PEPTIDE1{[O=C[*:2]].M.N.T.G.N.A.[NCCCOP(=O)(NC(=O)[C@H](CC(=O)O)N[*:1])OC[C@H]1O[C@@H](n2cnc3c(N)ncnc32)[C@H](O)[C@@H]1O]}$$$$V2.0)	no bacteriostatic effects	37.7 ± 1.1%	88.79 ± 0.88%	–	–	–	–	–	–	–	–	–	–	–
CSCC[C@H](NC=O)C(=O)N1CCC[C@H]1C(=O)N[C@H](C(=O)NCC(=O)N[C@@H](CC(N)=O)C(=O)N[C@@H](C)C(=O)N[C@@H](CC(=O)O)C(=O)NP(=O)(OCCCN)OC[C@H]1O[C@@H](n2cnc3c(N)ncnc32)[C@H](O)[C@@H]1O)[C@@H](C)O (stereo partly shown) [R2P] (HELM PEPTIDE1{[O=C[*:2]].M.P.T.G.N.A.[NCCCOP(=O)(NC(=O)[C@H](CC(=O)O)N[*:1])OC[C@H]1O[C@@H](n2cnc3c(N)ncnc32)[C@H](O)[C@@H]1O]}$$$$V2.0)	no bacteriostatic effects	42.8 ± 0.76%	86.9 ± 1.24%	–	–	–	–	–	–	–	–	–	–	–
CSCC[C@H](NC=O)C(=O)N[C@@H](CO)C(=O)N[C@H](C(=O)NCC(=O)N[C@@H](CC(N)=O)C(=O)N[C@@H](C)C(=O)N[C@@H](CC(=O)O)C(=O)NP(=O)(OCCCN)OC[C@H]1O[C@@H](n2cnc3c(N)ncnc32)[C@H](O)[C@@H]1O)[C@@H](C)O (stereo partly shown) [R2S] (HELM PEPTIDE1{[O=C[*:2]].M.S.T.G.N.A.[NCCCOP(=O)(NC(=O)[C@H](CC(=O)O)N[*:1])OC[C@H]1O[C@@H](n2cnc3c(N)ncnc32)[C@H](O)[C@@H]1O]}$$$$V2.0)	–	–	–	retained their antimicrobial activity	13.46 mm	9.44 mm	exhibited antibacterial effects	17.35 mm	16.34 mm	41.3 ± 1.27%	100 µg/mL (≈ 90.2 µM)	bacteriostatic	17.004 min	84.33 ± 0.77%
